The text below walks through data of patent publication US5663151A, “Sulfated α-glycolipid derivatives as cell adhesion inhibitors” (Bristol-Myers Squibb Company, priority 1995, dated 1997).

Experiment [1] has as its target T1, P-selectin Rg (Homo sapiens, UniProt P16109).
T1 construct: consists of the human lectin domain, the EGF domain, and two complement repeats of the human selectins; made in house
As to the kind of experiment: HL-60 cell binding to P-selectin Rg. Type of experiment: cell-based. The conditions noted are these: HL-60 cells, binding to P-selectin Rg coated wells. As to the method:
2. HL-60 Cell Binding to P- and E-Selectin RG
The chimeric P- and E-selectin receptor globulin (Rg) consists of the human lectin domain, the EGF domain, and two complement repeats of the human selectins fused to the hinge, CH1 and CH2 domains of human IgG1. These proteins were prepared as described by Aruffo, et al., Cell (1991) 67: 35-44; Walz, et al., Science (1990) 250, 1132-1135.
The HL-60 cell line, obtained from the American Type Culture Collection, ATCC No. CCL240, was employed to investigate P-selectin Rg binding. Assays were done in 96-well tissue culture dishes. The wells were first coated with 0.5 ug goat anti-human Fc antiserum overnight, and nonspecific binding sites were blocked by incubation of the wells with 1% nonfat dry milk in phosphate buffered saline (PBS containing 0.9 mM CaCl2 and 0.8 mM MgSO4) for 30 minutes. The Rg was then bound to the anti Fc-coated wells by incubating 50 ng in 50 ul of PBS for two hours. Cells, washed twice and resuspended in PBS to remove traces of medium components, were labeled with 10 uM calcein acetoxy methyl ester for 30 minutes at 3×10^7 cells per ml at room temperature. Serum-containing medium (RPMI with 20% fetal calf serum) was added, and the cells washed, followed by resuspension in PBS and a further spin. The labeled cells, resuspended in PBS, were added to twice washed Rg-containing wells at 200,000 per well. Following a 30 minute incubation with slow shaking, the wells were aspirated and washed three times with PBS to remove unbound cells. To certain wells were added known numbers of cells for determination of a standard curve of fluorescent units per cell. The fluorescence on the plate was quantitated using a fluorescent plate reader. Following subtraction of a blank representing the binding of cells to non-Rg containing wells (<5000 cells), the specific binding to P- or E- selectin was determined.
Inhibitors of cell binding
Test compounds were prepared by dissolution to a final concentration of 20 mg/ml in dimethyl sulfoxide (DMSO), diluted in PBS to 2 mg/ml, and briefly sonicated prior to use. The Rg coated wells were preincubated at room temperature for 15 minutes with the inhibitor, and 200,000 cells were added to yield the final indicated inhibitor concentration in 160 ul of PBS. The data is obtained as percent inhibition of specific binding: [formula] and a plot of dose vs. percent inhibition of Rg binding is generated in which IC50 (μM) is calculated and reported in Table 1.

In experiment [2] the test system is rats. As to the kind of experiment: Reverse passive Arthus reaction (RPA) in rats. Format: in vivo, Male Sprague Dawley rats. The note with it: 3 mg single dose IV, 4 hours; for RPA MPO % Inhib.: myeloperoxidase; for RPA VP % Inhib.: vascular permeability. The source says:
3. Reverse Passive Arthus Reaction in Rats
The reverse passive Arthus reaction in rats is a modification of the method by Mulligan et al., as described in J. Clin. Invest. (1991) 88: 1396-1406. This is an experimental model in which the interaction of antigen-antibodycomplexes and complement leads to a severe vasculitis that is associated with edema, induration, erythema and hemorrhage. The interaction between the antigen-antibody complexes and complement leads to a localized influx of neutrophils. These neutrophils release a variety of mediators that are associated with tissue damage and vascular permeability. The localized inflammatory reaction is measured using different techniques i.e., vascular permeability and neutrophil influx which is evaluated both biochemically and microscopically.
Male Sprague Dawley specific pathogen-free rats with jugular vein cannulae (280-320 g, Hill Top Labs, Pa.) are used in these studies. Animals are acclimated for at least 1 day and individually housed in stainless steel cages. The dorsal region of the rats is closely clipped 2 days prior to the experiments and divided into 4 sites on each side of the midline. Prior to all injections the rats are sedated with 0.4 ml per 300 gm rat of ketamine/rompun [1000 mg (10 ml) of ketamine HCL is mixed with 40 mg (2.0 ml) Rompun] administered IP and or inhalation anesthesia with metafane (methoxyflurane).
Bovin Serum Albumin (BSA) and rabbit polyclonal IgG rich in anti-BSA are purchased from Sigma Chemical Co. (St. Louis, Mo.). Radiolabelled ^125 I-BSA (spAct 1-5 μCi/μg) is purchased from Dupont NEN (Boston, Mass.).
Each rat is administered intradermal (ID) injection of (0.4 mg, 0.6 mg and 0.8 mg) anti-BSA in a volume of 100 μl per injection in normal saline. The ID injections are randomized near the mid dorsal region on both sides of the back bone. Immediately after the ID injections of the anti-BSA, the rats are administered intravenous (IV) injections of BSA (10 mg in 1.0 ml) in normal saline containing ^125 I labeled BSA (1 μCi/ml BSA or 5.0 μCi/kg body wt) for quantification of dermal vascular injury. Anti-inflammatory agents such as inhibitors of adhesion molecules of the present invention are administered IV at a single dose of 3 mg immediately after BSA. Four (4) hours after the IV injection of BSA, the rats are anesthetized with metafane and 2 to 3 ml of blood is withdrawn via the cannula into an anticoagulant containing (EDTA or Heparin) tube and plasma separated and saved for neutrophil and albumin quantitation. The rats are killed and the skin surrounding the injection site (15 mm diameter) is punched out and weighed. The skin samples and a fixed volume of plasma (0.1 to 1.0 ml) is analyzed in a gamma-counter for ^125 I content. Skin samples from the contralateral side are processed and analyzed for myeloperoxidase activity (MPO) as a measure of neutrophil accumulation. As needed, samples are also processed for histological evaluation of the reacted sites.
Vascular Permeability (VP)
The calculation of the plasma protein exudation into skin is made by determining the radioactivity in the tissue and relating this to the level of radioactive albumin in the blood at the time of sacrifice. […] [formula]
Percent inhibition of the test compound at 3 mg was determined as follows: [formula] Myeloperoxidase (MPO)
MPO is located in the azurophil granules of polymorphonuclear leukocytes (PMN). Because of its abundance in these cells (5% dry weight), this enzyme is used as a marker for tissue neutrophil content. For tissue MPO content, the method of Bradley, et al., was used as described in J. Invest. Dermatol. (1982) 78: 206-209. Biopsies from each treatment group were placed in plastic tubes (15×100 mm) containing 10 ml of 0.5% hexadecyltrimethylammonium bromide (HTAB) in 0.05M potassium phosphate buffer pH 6.0. The tissue was then homogenized with a Brinkmann Polytron homogenizer (10s). […]

Experiment [3] deals with T2, P-selectin (Homo sapiens, UniProt P16109).
T2 construct: consists of the human lectin domain, the EGF domain, and two complement repeats of the human selectins; made in house
T2 sequence (P16109 with tags, fused parts or gaps limits assumed): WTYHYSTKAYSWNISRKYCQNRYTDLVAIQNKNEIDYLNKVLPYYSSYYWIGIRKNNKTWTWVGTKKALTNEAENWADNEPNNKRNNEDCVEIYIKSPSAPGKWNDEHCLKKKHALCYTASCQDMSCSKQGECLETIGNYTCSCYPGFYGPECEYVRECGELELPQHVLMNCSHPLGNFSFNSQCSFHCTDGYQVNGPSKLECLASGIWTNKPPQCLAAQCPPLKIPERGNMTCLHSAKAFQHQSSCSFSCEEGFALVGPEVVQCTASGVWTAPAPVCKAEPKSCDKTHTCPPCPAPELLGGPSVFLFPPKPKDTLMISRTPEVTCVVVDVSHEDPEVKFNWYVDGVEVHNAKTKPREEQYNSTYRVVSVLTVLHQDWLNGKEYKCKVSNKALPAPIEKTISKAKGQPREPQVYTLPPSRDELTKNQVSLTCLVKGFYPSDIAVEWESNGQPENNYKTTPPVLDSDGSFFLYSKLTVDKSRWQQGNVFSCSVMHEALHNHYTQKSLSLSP
As to the kind of experiment: P-selectin binding ELISA to immobilized sulfatides (cell free). The note with it: inhibition of P-selectin binding to immobilized sulfatide. As to the method:
Based on the availability of soluble forms of P-selectin prepared as described by Aruffo, A., et al., Cell, 67, 35-44 (1991), a binding ELISA based assay modified from Foxall, et al., J., Cell Biol., 117, 895-902 (1992) was developed to measure inhibitors of P-selectin binding to immobilized sulfatides. Such inhibitors were tested in the assay described below.
0.1 ml of sulfatide (SIGMA) or lysosulfatide (SIGMA) each at 1 μg/ml in MeOH were added to the wells of a 96-well ELISA plate (ProBind, Falcon) and allowed to dry overnight at room temperature. The next day the antigen coated plates were blocked for 1.5 hours at room temperature with 5% BSA (ICN) in buffer containing 20 mM Hepes and 0.15M NaCl, pH 8.0. Wild type P-selectin and mutants thereof were first mixed with HRP-conjugated goat anti-human lgG (Fisher Scientific), serially diluted and then incubated for 30 minutes at 37° C. in buffer containing 20 mM Hepes, 0.15M NaCl, 1% BSA and 0.8 mM CaCl2, pH 8.0 prior to addition to the BSA blocked plates. Following the 30 minute preincubation, the fusion protein-HRP conjugate immunocomplexes were incubated on the blocked antigen coated plates for 45 minutes at 37° C. in the presence or absence of the test compounds and then washed to remove any unbound proteins. Bound complexes were detected by addition of substrate buffer (95 mM NaOAc.3H2 O, 5 mM citric acid monohydrate, 1.4 mM urea/H2O2) containing 3, 3', 5, 5' Tetramethylbenzidine (SIGMA). Reactions were stopped by the addition of 3N sulfuric acid and the absorbance read on an ELISA reader at dual wavelengths 450 and 630 nm. The efficacy of these compounds was compared to that of sulfatide (positive control) or to lysosulfatide (negative control). The data is obtained as percent inhibition of specific binding [formula] and a plot of dose vs. percent inhibition of Rg binding is generated in which IC50 (μM) is calculated and reported as cell free data in Table 1.

T1 sequence (P16109 with tags, fused parts or gaps limits assumed): as above

With `CCCCCCCCCCCCC/C=C/[C@@H](OC(=O)c1ccccc1)[C@H](CO[C@H]1O[C@H](COS(=O)(=O)O)[C@H](OS(=O)(=O)O)[C@H](OC(=O)c2ccccc2)[C@H]1OC(=O)c1ccccc1)NC(=O)CCCCCCCCCCCCCCC` [Example 1, (2S,3R,4E)-3-Benzoyloxy-2-hexadecanoylamino-1-[2,3-di-O-benzoyl-4,6-di-O-(sodiumoxysulfonyl)-α-D-galactopyranosyloxy]-4-octadecene], the IC50 in experiment [1] is 8.3 µM. Besides, in experiment [2], the “RPA MPO % Inhib.” value is given as 97% and the “RPA VP % Inhib.” value was found to be 68%. Besides, the IC50 in experiment [3] was determined as 0.3 µM.
The matching figures for `CCCCCCCCCCCCC/C=C/[C@@H](O)[C@H](CO[C@H]1O[C@H](COS(=O)(=O)O)[C@H](OS(=O)(=O)O)[C@H](O)[C@H]1O)NC(=O)CCCCCCCCCCCCCCC` [Example 2, (2S,3R,4E)-3-Hydroxy-2-hexadecanoylamino-1-[4,6-di-O-(sodiumoxysulfonyl)-α-D-galactopyranosyloxy]-4-octadecene]: 17 µM, 0%, 14% and 0.2 µM.
As for `CCCCCCCC/C=C\CCCCCCCCCCCCCC(=O)N[C@@H](CO[C@H]1O[C@H](COS(=O)(=O)O)[C@H](OS(=O)(=O)O)[C@H](O)[C@H]1O)[C@H](O)/C=C/CCCCCCCCCCCCC` [Example 4, (2S,3R,4E)-3-Hydroxy-2-(cis-15-tetracosenoylamino)-1-[4,6-di-O-(sodiumoxysulfonyl)-α-D-galactopyranosyloxy]-4-octadecene], the IC50 in experiment [1] turned out to be 8 µM; in experiment [3] it was 9 µM.
With `CCCCCCCCCCCCC/C=C/[C@@H](OC(=O)c1ccccc1)[C@H](CO[C@H]1O[C@H](COS(=O)(=O)O)[C@@H](OS(=O)(=O)O)[C@H](OC(=O)c2ccccc2)[C@H]1OC(=O)c1ccccc1)NC(=O)CCCCCCCCCCCCCCC` [Example 7, (2S,3R,4E)-3-Benzoyloxy-2-hexadecanoylamino-1-[-2,3-di-O-benzoyl-4,6-di-O-(sodiumoxysulfonyl)-α-D-glucopyranosyloxy]-4-octadecene], the IC50 in experiment [1] is 11 µM. For the same compound, in experiment [2], the “RPA MPO % Inhib.” value is reported as 97% and the “RPA VP % Inhib.” value worked out at 88%. This compound also had an IC50 in experiment [3] of approximately 0.4 µM.
The matching figures for `CCCCCC/C=C/[C@@H](OC(=O)c1ccccc1)[C@H](CO[C@H]1O[C@H](COS(=O)(=O)O)[C@H](OS(=O)(=O)O)[C@H](OC(=O)c2ccccc2)[C@H]1OC(=O)c1ccccc1)NC(=O)CCCCC` [Example 10, (2S,3R,4E)-1-[2,3-di-O-benzoyl-4,6-Di-O-(sodiumoxysulfonyl)-α-D-galactopyranosyloxy]-3-benzoyloxy-2-hexanoylamino-4-undecene]: 8 µM, 71.6%, 11% and more than 6.1 µM.
Taken in the same sequence, the figures for `CCCCCCCCCCCCC/C=C/[C@@H](OC(=O)c1ccccc1)[C@H](CO[C@H]1O[C@H](COS(=O)(=O)O)[C@H](OS(=O)(=O)O)[C@H](OCc2ccccc2)[C@H]1OCc1ccccc1)NC(=O)CCCCCCCCCCCCCCC` [Example 11, (2S,3R,4E)-2-Hexadecanoylamino-3-benzoyloxy-1-[2,3-di-O-benzyl-4,6-di-O-(sodiumoxysulfonyl)-α-D-galactopyranosyloxy]-4-octadecene] were 8.9 µM, 53.7%, 32% and 1.7 µM.
Taken in the same sequence, the figures for `CCCCCCCCCCCCC/C=C/[C@@H](OC(=O)c1ccccc1)[C@H](CO[C@H]1O[C@H](COS(=O)(=O)O)[C@H](O)[C@H](O)[C@H]1OS(=O)(=O)O)NC(=O)CCCCCCCCCCCCCCC` [Example 15, (2S,3R,4E)-3-Benzoyloxy-2-hexadecanoylamino-1-[2,6-di-O-(sodiumoxysulfonyl)-α-D-galactopyranosyloxy]-4-octadecene] were 5.2 µM, 0%, 50% and 2.2 µM.
